Measured values from patent publication US20220211861A1, “DRUG CONJUGATES AND METHODS OF USING SAME” (The Board of Trustees of the Leland Staford Junior …, priority 2019, published 2022).
*1 amine or outer side, *2 acyl side, *3 side chain or, on linkers, in order; H or OH if unused. Where a SMILES comes first, the peptide text is derived from it. Bridges are numbered along the chain shown (N, C = ends). Roman numbers before positions name the chains, in order. [ ]: non-standard residue; d: D form. The star is where a group is joined. X1 = O=C([C@H](CCCn1nnc2c1-c1ccccc1CN([*:3])c1ccccc1-2)N[*:1])[*:2]; Dolaproine = CO[C@@H]([C@@H]1CCCN1)[C@@H](C)C(=O)O; X3 = O=C(CCC(=O)[*:1])NCCOCCOCCOCCC(=O)[*:2]; Dil = CC[C@H](C)[C@H](NC)[C@@H](CC(=O)O)OC; PABC = O=C(OCc1ccc(N[*:1])cc1)[*:2]; X2 = C[C@@H](N*)[C@@H](O)c1ccccc1; Cit = NC(=O)NCCC[C@H](N)C(=O)O; NMeV = CN[C@H](C(=O)O)C(C)C

How the values were obtained:
U87MG cells = test: Indirect (competition) binding assay displacing Alexa Fluor 488-labeled knottin; settings: competing off 1 nM AF488-2.5F on U87MG cells
Experimental: The binding affinity of the constructs described in Example 1 were measured using U87MG glioblastoma cells. Drug-free protein affinities were measured directly using Alexa Fluor 488-conjugaed proteins and drug conjugates were measured via a competition binding assay displacing Alexa Fluor 488-labeled K. All constructs tested bound to U87MG cells with low-nanomolar affinity (FIG. 9A-B).
U87MG cells were detached using Enzyme-Free Cell Dissociation Buffer (Gibco). Next, 4×10^4 cells were incubated with 1 nM of Alexa Fluor 488 labeled knottin as a competitor and varying concentrations (0.01-500 nM) of KDC, KFDC, or KADC in IBB for 3 h at 4° C. to minimize internalization. Cells were pelleted and washed twice with 800 μL of PBSA (phosphate buffered saline containing 0.1% bovine serum albumin) and the fluorescence of remaining surface-bound protein was measured by flow cytometry using a Guava EasyCyte 8HT instrument (EMD Millipore). Resulting data were evaluated using FlowJo software (TreeStar Inc) and equilibrium dissociation constants (Kd) were determined using Prism software (GraphPad). Error bars represent the standard deviation of experiments performed in triplicate.

[1] = system: RFP-expressing U87MG spheroids; test: Confocal imaging of diffusion into tumor spheroids; assay type: cell-based; settings: multiple z-heights
Experimental: To verify this mechanism, an in-vitro setup was constructed to test and visualize differences in solid tumor diffusion. Solid tumor spheroids of RFP-expressing U87MG glioblastoma cells were grown in ultra-low adhesion 96-well plates. Spheroids were grown to until reaching a diameter of ˜750 μm then treated with 200 nM of AF488-labeled KDC, KFDC, or KADC and incubated for 4 h. […]
To obtain a more quantitative comparison, the relative decay of green channel intensity was compared to red channel intensity from the constitutively expressed RFP. Because the red channel should be uniform, due to stable RFP expression, and is only attenuated by the optical density of the spheroid, this signal intensity was used to correct the signal intensity of the green channel.
Spheroids of RFP-expressing U87MG cells were formed by seeding round-bottom, 96-well ultra-low adhesion plates (Corning) with 4×10^3 cells/well and centrifuging at 1000×g for 10 minutes. Spheroids were grown for 4 days, until reaching a diameter of 750 μm. Spheroids were then incubated in fresh media containing 200 nM of Alexa Fluor 488-conjugated KDC, KFDC, or KADC for 4 h. […] Quantification was performed using FIJI image analysis software. Intensity was calculated radially from the center of each spheroid and plotted as the relative ratio of green intensity corrected for the intensity of RFP as an attenuation control.

U87MG hip xenografts [2] = test: Therapeutic efficacy study, once weekly for four weeks, tumors implanted with Matrigel; assay type: in vivo, Nu/Nu mice
Experimental: To further investigate each compound, several changes were made to the experimental design. Because of the KDC's rapid systemic clearance, a significant portion of the injected dose is likely lost and the ˜0.6 mg/kg dose was therefore increased substantially. Because dosages for chemotherapeutics are conventionally determined as mass of chemotherapeutic per patient body surface area, a more clinically relevant comparison of equal mass was selected over an equimolar comparison. Next, a once-per-week dosing regimen was selected to coincide with realistic clinical dosing considerations. Finally, tumors were implanted with Matrigel matrix to increase tumor growth and with only 2.5×10^6 cells per injection to decrease initial tumor necrosis. Mice bearing U87MG hip xenografts were equally distributed into the following treatment groups with intravenous injections given once weekly for 4 weeks: KDC, KFDC, KADC, unconjugated proteins, or a PBS control. Each drug conjugate was also evaluated at a low dose and a high dose.
For tumor cell implantation, female Nu/Nu mice (Charles River Laboratory) were anesthetized with 2.5% isoflurane by inhalation with a flow rate of 1 L/min. A volume of 200 μL of 50/50 PBS/Matrigel (Corning), containing 2.5×10^6 U87MG cells, was injected subcutaneously into the right flank. Tumors were allowed to grow for 7 days until reaching a size of approximately 35 mm^2. For therapeutic efficacy studies, mice were binned into experimental groups to ensure equivalent average tumor sizes and starting body weights across all groups.
Mice bearing U87MG flank xenografts, as described above, were injected intravenously with PBS, KDC, KFDC, KADC, or controls proteins. Treatments were administered once per week for four weeks. Tumors were measured three times per week using digital calipers and animal weights were recorded on each dosing day to monitor for potential weight loss as a measure of compound toxicity. Tumor area was calculated as the longest axis of the tumor multiplied by the perpendicular axis. Euthanasia criteria were defined as a tumor area greater than 150 mm^2 or a loss of 20% body weight.

U87MG hip xenografts [3] = test: Pilot therapeutic efficacy study, dosing 3 times per week for 3 weeks; assay type: in vivo, Nu/Nu mice
Experimental: Using this treatment regimen as a starting point, a preliminary study was set up using 5 mice per treatment group. Mice were inoculated with 5×10^6 U87MG cells in the right flank and tumors were allowed to grow and establish until reaching an approximate area of 30 mm^2. Mice were then randomized into 1 of 4 treatment groups: PBS, KDC, KFDC, or KADC. To keep groups equivalent and provide the highest chance of efficacy for KDC despite its short circulatory half-life, all drug conjugate groups dosed 3 times per week for 3 weeks. Each dose contained the appropriate drug conjugate normalized to 2.38 nmol MMAE (˜0.6 mg/kg KDC, ˜5 mg/kg KFDC, ˜10 mg/kg KADC).

[4] = system: U87MG glioblastoma hip xenografts; test: Ex vivo biodistribution of AF680-labeled conjugates; assay type: in vivo, mice; settings: radiant efficiency of excised organs
Experimental: To further assess the tumor-to-background ratio, the uptake of fluorescently-labeled drug conjugate by each organ was measured ex vivo. Nude mice bearing U87MG glioblastoma hip xenografts were injected intravenously with Alexa Fluor 680-conjugated proteins. Mice were sacrificed after 3 or 24 h and organs were removed for imaging. […] Specifically, the liver, kidneys, spleen, pancreases, heart, lungs, bladder, quadriceps, and femur (FIG. 18).
Mice bearing U87MG flank xenografts, as described above, were injected intravenously with 1.5 nmol of Alexa Fluor 680-labeled K, KFc, or KAb. Organs (tumor, liver, kidneys, spleen, pancreas, heart, lungs, bladder, quadriceps muscle, and bone) were collected at end points of 4 h and 24 h. Organs were imaged using an IVIS Spectrum (PerkinElmer). The fluorophore-conjugated protein was detected using excitation/emission wavelengths of 640 nm and 710 nm, respectively. All imaging analysis was performed using Living Image software (Caliper Life Sciences).

[5] = 1 mg/kg once weekly for 4 weeks
[6] = 5 mg/kg once weekly for 4 weeks

Question: What does the source list for `CC[C@H](C)[C@@H]([C@@H](CC(=O)N1CCC[C@H]1[C@H](OC)[C@@H](C)C(=O)N[C@H](C)[C@@H](O)c1ccccc1)OC)N(C)C(=O)[C@@H](NC(=O)[C@H](C(C)C)N(C)C(=O)OCc1ccc(NC(=O)[C@H](CCCNC(N)=O)NC(=O)[C@@H](NC(=O)CCOCCOCCOCCNC(=O)CCC(=O)N2Cc3ccccc3-c3c(nnn3CCC[C@@H]3NC(=O)[C@@H]4CSSC[C@@H]5NC(=O)[C@H](C(C)C)NC(=O)[C@H](CSSC[C@H](NC(=O)CN)C(=O)N6CCC[C@H]6C(=O)N[C@@H](CCCNC(=N)N)C(=O)N6CCC[C@H]6C(=O)N[C@@H](CCCNC(=N)N)C(=O)NCC(=O)N[C@@H](CC(=O)O)C(=O)N[C@@H](CC(N)=O)C(=O)N6CCC[C@H]6C(=O)N6CCC[C@H]6C(=O)N[C@@H](CC(C)C)C(=O)N[C@@H]([C@@H](C)O)C(=O)N4)NC(=O)CNC(=O)[C@H](C)NC(=O)[C@H](CC(C)C)NC(=O)[C@H](CSSC[C@@H](C(=O)NCC(N)=O)NC(=O)[C@H](Cc4ccc(O)cc4)NC(=O)CNC(=O)[C@H](CC(N)=O)NC(=O)[C@@H]4CCCN4C(=O)CNC5=O)NC(=O)[C@H](CC(=O)O)NC(=O)[C@H](CO)NC(=O)[C@H](CC(=O)O)NC(=O)[C@H](CCC(N)=O)NC3=O)-c3ccccc32)C(C)C)cc1)C(C)C` [KDC] (I: H-GCPRPRGDNPPLTC[X1]QDSDCLAGCVCGPNGYCG-NH2 / II: V[Cit][PABC][NMeV]V[Dil][Dolaproine]-X2; disulfide I:2-I:24, I:14-I:26, I:20-I:32; linker I:15-II:N via X3; N-terminus assumed)?
Answer: Ki (U87MG cells): 0.9 nM; green intensity in the center of each optical slice as a function of depth [1]: remains relatively constant; tumor growth (U87MG hip xenografts [2]; [5]): significantly delayed tumor growth but did not cause tumor regression; tumors regrew after the end of treatment (U87MG hip xenografts [2]; [5]): 5 of 5; efficacy (U87MG hip xenografts [2]; [6]): very effective; tumor regression (U87MG hip xenografts [2]; [6]): 4 of 5; comparison by mass of drug conjugate per kg mouse body weight (U87MG hip xenografts [2]; once weekly for 4 weeks): significantly outperformed both KFDC and KADC; cytostatic effect maintained (U87MG hip xenografts [3]; dose normalized to 2.38 nmol MMAE (0.6 mg/kg KDC)): 4 of 5; complete tumor regression (U87MG hip xenografts [3]; dose normalized to 2.38 nmol MMAE, 5 mice per group): 1 of 5; organ uptake ex vivo [4]: higher kidney and bladder uptake
